Results from patent US10501482B2, “Compounds for treating spinal muscular atrophy” (Hoffmann-La Roche Inc., priority 2013, dated 2019).
Structures can show the parent of a compound that is named as a salt.

Assays:
[1] = system: full length SMN2 minigene mRNA (FL SMN2mini) in HEK293H cells stably transfected with the SMN2-A minigene construct; assay: SMN2 minigene mRNA splicing RT-qPCR assay in cultured cells; assay type: cell-based; settings: Homo sapiens, HEK293-H, 24 hours, 7-point concentration curve, concentration giving 1.5-fold FL SMN2mini mRNA vs vehicle, read-out: EC1.5x minigene (EC1.5x concentration for production of full length SMN2 minigene mRNA)
Outline: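 Stably transfected HEK293H cells, 10,000/well in DMEM/10% FBS with hygromycin, attached 6 h, then received compound for 24 h at 37° C in duplicate at 7 concentrations. Multiplex RT-qPCR with GAPDH used primers that detect only the minigene. An efficiency-corrected ΔΔCt, GAPDH- and vehicle-normalized, gave EC1.5x concentrations.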

SMN protein = SMN protein assay (HTRF) in cultured SMA patient fibroblast cells; assay type: cell-based; settings: SMA Type 1 human fibroblasts GM03813, 48 hours; for EC1.5x SMN protein (EC1.5x concentration for SMN protein expression): 7-point concentration curve, concentration giving 1.5 times SMN protein vs vehicle; for max. fold increase (maximum fold increase of SMN protein): 7-point concentration data, fold vs vehicle control
Outline: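 SMA patient fibroblasts seeded at 5,000 cells/well, treated 48 h at 37 °C in triplicate per concentration (7-point series). Lysed in RIPA with protease inhibitors; SMN read by HTRF (anti-SMN d2/kryptate, overnight RT), 665/620 nm ratio. ΔF vs blank, expressed as fold over vehicle; EC1.5x and maximum fold increase derived.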

| SMILES | EC (1.5-fold) [1] [µM] | EC1.5x SMN protein (EC1.5x concentration for SMN protein expression) (SMN protein) [µM] | max. fold increase (maximum fold increase of SMN protein) (SMN protein) |
| --- | --- | --- | --- |
| Cc1nc2c(F)cc(NC(=O)c3ccc(N4CCN5CCC[C@H]5C4)nc3)cc2o1 [Example 25, (S)-N-(4-fluoro-2-methylbenzo[d]oxa-zol-6-yl)-6-(hexa-hydropyrrolo[1,2-a]pyrazin-2-(1H)-yl)nicotinamide] | 0.382 | 0.5694 | 1.6652 |
| Cc1nc2c(F)cc(NC(=O)c3ccc(N4CCNCC4)nc3)cc2o1 [Example 26, N-(4-Fluoro-2-methylbenzo-oxazol-6-yl)-6-piperazin-1-yl-nicotinamide] | 0.0445 | 0.2853 | 1.8316 |
| Cc1nc2c(F)cc(NC(=O)c3ccc(N4CCNCC4)cc3)cc2o1 [Example 28, N-(4-fluoro-2-methylbenzo[d]-oxazol-6-yl)-4-(piperazin-1-yl)benzamide] | 0.252 | 0.2868 | 1.7291 |
| Cc1nc2c(F)cc(NC(=O)c3ccc(N4CC(C)NC(C)C4)cc3)cc2o1 (stereo not shown) [Example 30, 4-(3,5-dimethyl-piperazin-1-yl)-N-(4-fluoro-2-methyl-benzo[d]oxazol-6-yl)benzamide] | 0.41 | 0.7612 | 1.6734 |
| Cc1cn2cc(NC(=O)c3ccc(N4CCN5CCC[C@H]5C4)cc3F)ccc2n1 [Example 31, (S)-2-fluoro-4-(hexahydropyrrolo[1,2-a]pyrazin-2(1H)-yl)-N-(2-methylimidazo[1,2-a]pyridin-6-yl)benzamide] | 0.119 | 0.2746 | 1.7849 |
| Cc1cn2cc(NC(=O)c3ccc(N4CCN(C)CC4)nc3)cc(F)c2n1 [Example 32, N-(8-fluoro-2-methylimidazo-[1,2-a]pyridin-6-yl)-6-(4-methyl-piperazin-1-yl)-nicotinamide] | 0.0938 | 0.2028 | 1.7579 |
| Cc1nc2c(F)cc(NC(=O)c3ccc(N4CCN5CCC[C@@H]5C4)cc3F)cc2o1 [Example 34, (R)-2-fluoro-N-(4-fluoro-2-methyl-benzo[d]oxazol-6-yl)-4-(hexahydro-pyrrolo[1,2-a]-pyrazin-2(1H)-yl)benzamide] | 0.328 | 0.7793 | 1.6527 |
| Cc1cn2cc(NC(=O)c3ccc(N4CCN5CCC[C@H]5C4)cc3F)cc(C(F)(F)F)c2n1 [Example 35, (S)-2-fluoro-4-(hexahydro-pyrrolo[1,2-a]-pyrazin-2(1H)-yl)-N-(2-methyl-8-(trifluoro-methyl)imidazo-[1,2-a]pyridin-6-yl]benzamide] | 0.202 | 1.2664 | 1.6275 |
| Cc1cn2cc(NC(=O)c3ccc(N4CCNCC4)cc3)cc(F)c2n1.Cl [Example 36, N-(8-fluoro-2-methylimidazo[1,2-a]pyridin-6-yl)-4-(piperazin-1-yl)benzamide hydrochloride] | 0.0278 | 0.1094 | 1.7018 |
| Cc1cn2cc(NC(=O)c3ccc(N4CCNCC4)cc3F)cc(F)c2n1 [Example 40, 2-fluoro-N-(8-fluoro-2-methyl-imidazo[1,2-a]-pyridin-6-yl)-4-(piperazin-1-yl)benzamide dihydrochloride] | 0.0108 | 0.0276 | 1.7607 |
| Cc1cn2cc(NC(=O)c3ccc(N4CCNCC4)cc3F)ccc2n1 [Example 44, 2-fluoro-N-(2-methylimidazo[1,2-a]pyridin-6-yl)-4-(piperazin-1-yl)-benzamidehydro-chloride] | 0.0648 | 0.13 | 1.8243 |
| Cc1cn2cc(NC(=O)c3ccc(N4CCN[C@@H](C)C4)cc3F)cc(F)c2n1 [Example 50, (S)-2-fluoro-N-(8-fluoro-2-methyl-imidazo[1,2-a]-pyridin-6-yl)-4-(3-methylpiperazin-1-yl)benzamide hydrochloride] | 0.0068 | 0.0344 | 1.6607 |
| Cc1cn2cc(NC(=O)c3ccc(N4CCN[C@H](C)C4)cc3F)cc(F)c2n1 [Example 51, (R)-2-fIuoro-N-(8-fluoro-2-methyl-imidazo[1,2-a]-pyridin-6-yl)-4-(3-methylpiperazin-1-yl)benzamide hydrochloride] | 0.0084 | 0.0561 | 1.7266 |
| Cc1nc2c(F)cc(NC(=O)c3ccc(N4CCNCC4)cc3F)cc2o1 [Example 58, 2-fluoro-N-(4-fluoro-2-methyl-benzo[d]oxazol-6-yl)-4-(piperazin-1-yl)benzamide] | 0.0398 | 0.1159 | 1.7744 |
| Cc1cn2cc(NC(=O)c3ccc(N4CCNCC4)cc3F)cc(C(F)(F)F)c2n1 [Example 59, 2-fluoro-N-(2-methyl-8-(trifluoromethyl)-imidazo[1,2-a]-pyridin-6-yl)-4-(piperazin-1-yl)-benzamide] | 0.109 | 0.2749 | 1.7116 |
| Cc1cn2cc(NC(=O)c3ccc(C4=CCNCC4)cc3F)ccc2n1 [Example 60, 2-fluoro-N-(2-methylimidazo[1,2-a]pyridin-6-yl)-4-(1,2,3,6-tetrahydro-pyridin-4-yl)-benzamide hydrochloride] | 0.0428 | 0.107 | 1.7375 |
| Cc1cn2cc(NC(=O)c3ccc(C4=CCNCC4)cc3F)cc(F)c2n1 [Example 61, 2-fIuoro-N-(8-fluoro-2-methyl-imidazo[1,2-a]-pyridin-6-yl)-4-(1,2,3,6-tetra-hydropyridin-4-yl)benzamide hydrochloride] | 0.01 | – | 1.7077 |
| Cc1cn2cc(NC(=O)c3ccc(C4=CCNCC4)nc3)cc(F)c2n1 [Example 62, N-(8-fluoro-2-methylimidazo[1,2-a]pyridin-6-yl)-6-(1,2,3,6-tetra-hydropyridin-4-yl)nicotinamide dihydrochloride] | 0.0136 | – | 1.5583 |
| Cc1cn2cc(NC(=O)c3ccc(C4=CCNCC4)cn3)ccc2n1 [Example 63, N-(2-methyl-imidazo[1,2-a]-pyridin-6-yl)-5-(1,2,3,6-tetra-hydropyridin-4-yl)picolinamide dihydrochloride] | 0.16 | 1.0431 | 1.6807 |
| COc1nc(N2CCNCC2)ccc1C(=O)Nc1cc(F)c2nc(C)cn2c1 [Example 64, N-(8-fluoro-2-methylimidazo[1,2-a]pyridin-6-yl)-2-methoxy-6-(piperazin-1-yl)nicotinamide] | 0.0291 | 0.1192 | 1.7581 |
| Cc1cn2cc(NC(=O)c3ccc(N4CCNCC4)nc3F)cc(F)c2n1 [Example 65, 2-fIuoro-N-(8-fluoro-2-methylimidazo[1,2-a]pyridin-6-yl)-6-(piperazin-1-yl)-nicotinamide] | 0.0762 | 0.1135 | 1.7675 |
| Cc1cn2cc(NC(=O)c3ccc(N4CCNCC4)c(C)c3)cc(F)c2n1 [Example 66, N-(8-fluoro-2-methylimidazo[1,2-a]pyridin-6-yl)-3-methyl-4-(piperazin-1-yl)benzamide] | 0.518 | 0.6108 | 1.5438 |
| Cc1cn2cc(NC(=O)c3cnc(N4CCNCC4)c(C)c3)cc(F)c2n1 [Example 67, N-(8-fluoro-2-methylimidazo[1,2-a]pyridin-6-yl)-5-methyl-6-(piperazin-1-yl)nicotinamide] | 0.318 | 0.866 | 1.6552 |
| Cc1cn2cc(NC(=O)c3cnc(N4CCNCC4)cc3F)cc(F)c2n1 [Example 68, 4-fluoro-N-(8-fluoro-2-methylimidazo[1,2-a]pyridin-6-yl)-6-(piperazin-1-yl)nicotinamide] | 0.0285 | 0.057 | 1.6943 |
| COc1cc(N2CCNCC2)ncc1C(=O)Nc1cc(F)c2nc(C)cn2c1 [Example 69, N-(8-fluoro-2-methylimidazo[1,2-a]pyridin-6-yl)-4-methoxy-6-(piperazin-1-yl)nicotinamide] | 0.0308 | 0.1645 | 1.7612 |
